Data on 18 compounds can be found in patent US4966907A, “6-substituted 5-hydroxy-2,3-dihydrobenzofurans as inhibitors of leukotriene biosynthesis” (Merck & Co., Inc., priority 1988, dated 1990).

Usually IC50 stands for the concentration needed to halve the response being measured.

One assay deals with LTB4 production in isolated human polymorphonuclear leucocytes (PMN). Put plainly: inhibition of LTB4 production in isolated human polymorphonuclear leukocytes (PMN), A23187-stimulated, radioimmunoassay. It is filed as cell-based. The note with it: Homo sapiens, Leucocyte, 5 min; calcium ionophore A23187 10 μM, 5 min at 37° C., 2.5×10^5 cells; read-out: Human Polymorphonuclear Leucocyte Activity IC50. From the text:
A. Preparation of Human PMN
Human blood is obtained by antecubital venepuncture from consenting volunteers who denied having taken medication within the previous 7 days. The blood is immediately added to 10% (v/v) trisodium citrate (0.13M) or 5% (v/v) sodium heparin (1000 IU/mL). PMNs are isolated from anticoagulated blood by dextran sedimentation and centrifugation through Ficoll Hypaque (specific gravity 1.077), essentially as described by Boyum. (Boyum, A., Scand. J. Clin. Lab. Invest 1968, 21 (Supp 97), 77). Contaminating erythrocytes are removed by lysis following exposure to ammonium chloride (0.16M) in Tris buffer (pH 7.65), and the PMNs resuspended at 5×10^5 cells/mL in HEPES (15 mM) buffered Hanks balanced salt solution containing Ca^2+ (1.4 mM) and Mg^2+ (0.7 mM), pH 7.4. Viability is assessed by Trypan blue exclusion and is typically greater than 98%.
B. Generation and Radiommumoassay of LTB4
PMNs 0.5 mL; 2.5×10^5 cells) are placed in plastic tubes and incubated (37° C., 2 min) with test compounds at the desired concentration or vehicle control (DMSO, final concentration 0.2%). The synthesis of leukotriene B4 (LTB4) is initiated by the addition of calcium ionophore A23187 (final concentration 10 μM) or vehicle on control samples and allowed to proceed for 5 minutes at 37° C. The reactions are then terminated by the addition of cold methanol (0.25 mL) and samples of the entire PMN reaction mixture are removed for radiommunoassay of LTB4.
Samples (50 μl) of authentic LTB4 of known concentration in radiommunoassay buffer (RIA) buffer (potassium phosphate 1 mM; disodium EDTA 0.1 mM; Thimerosal 0.025 mM; gelatin 0.1%, pH 7.3) or PMN reaction mixture diluted 1:1 with RIA buffer are added to reaction tubes.
Thereafter [3H]LTB4 (10 nCu in 100 μl RIA buffer) and LTB4 antiserum (100 μL of a 1:3000 dilution in RIA buffer) are added and the tubes vortexed. Reactants are allowed to equilibrate by incubation overnight at 4° C. To separate antibody bound from free LTB4, aliquots (50 μL) of activated charcoal (3% activated charcoal in RIA buffer containing 0.25% Dextran T-70) were added, the tubes vortexed, and allowed to stand at room temperature for 10 minutes prior to centrifugation (1500×g; 10 min; 4° C.). The supernatents containing antibody-bound LTB4 are decanted into vials and Aquasol 2 (4 mL) is added. Radioactivity is quantified by liquid scintillation spectrometry. […] The specificity of the antiserium and the sensitivity of the procedure have been described in detail elsewhere. (Rokach, J.; Hayes, E. C.; Girard, Y.; Lombardo. D. L.; Maycock, A. L.; Rosenthal, A. S.; Young, R. N.; Zamboni, R.; Zweerink, H. J. Prostaglandins Leukotrienes and Medicine 1984, 13, 21). The amount of LTB4 produced in test and control (approx. 20 ng/10^6 cells) samples are then calculated. Inhibitory dose response curves are constructed using a four-parameter algorithm and from these the IC50 values are determined.
On to `CCCc1cc2c(c(Br)c1O)CCO2` [Br CH2 CH3 CH3, 2,3-dihydro4-bromo-6-propyl-5-benzofuranol], for which the IC50 came to 49 nM.
With `Cc1c(O)c(CCCSc2ccccc2)cc2c1CCO2` [CH3 (CH2)3 SC6 H5, 2,3-dihydro-4-methyl-6-(3-(phenylthio)propyl)5-benzofuranol], the half-maximal inhibitory concentration (IC50) came out at 19 nM.
The same measure, in the same setting: then `OCCc1cccc(OCCCc2cc3c(cc2O)CCO3)c1` [H (CH2)3 OC6 H4-3-(CH2)2 OH, 2,3-Dihydro-6-(3-(3-(2-hydroxyethyl)-phenoxy)propyl)-5-benzofuranol], with 77 nM; and `CCCc1ccc(OCCCc2cc3c(cc2O)CCO3)cc1` [H (CH2)3 OC6 H4-4-(CH2)2 CH3, 2,3-dihydro 6-(3-(4-propylphenoxy)propyl)-5-benzofuranol], with 9 nM; and `OCCc1ccc(OCCCc2cc3c(cc2O)CCO3)cc1` [H (CH2)3 OC6 H4-4-(CH2)2 OH, 2,3-dihydro-6-(3-(4-(2-hydroxyethyl)phenoxy)propyl)-5-benzofuranol], with 41 nM.
Same read-out and setting: then `Oc1cc2c(cc1CCCOc1ccc(Cl)cc1)OCC2` [H (CH2)3 OC6 H4-4-Cl, 2,3-Dihydro-6-(3-(4-chlorophenoxy)propyl)-5-benzofuranol], with 55 nM.
The same measure, in the same setting: under `Oc1cc2c(cc1CCCOc1ccc(F)cc1)OCC2` [H (CH2)3 OC6 H4-4-F, 2,3-dihydro-6-(3-(4-fluorophenoxy)propyl)5-benzofuranol] stands 28 nM; under `Oc1cc2c(cc1CCCOc1ccccc1)OCC2` [H (CH2)3 OC6 H5, 2,3-dihydro-6-(3-phenoxypropyl)-5-benzofuranol], 57 nM.
For the compound `Oc1cc2c(cc1CCCSc1ccccc1)OCC2` [H (CH2)3 SC6 H5, 2,3-dihydro-6-(3-(phenylthio)propyl)-5-benzofuranol], the 50% inhibitory concentration (IC50) was found to be 19 nM.
Same read-out and setting: then `Oc1cc2c(cc1OCCCc1ccccc1)OCC2` [H O(CH2)3 C6 H5, 2,3-dihydro-6-(3-phenylpropoxy)-5-benzofuranol], with 51 nM.
On the same count and under the same terms, then `COC(=O)c1ccccc1OCCCOc1cc2c(cc1O)CCO2` [H O(CH2)3 OC6 H5-2-CO2 CH3, 2-(3-((2,3-dihydro-5-hydroxy-6-benzofuranyl)oxy)propoxy)benzoic acid methyl ester], with 65 nM; and `COC(=O)c1cccc(OCCCOc2cc3c(cc2O)CCO3)c1` [H O(CH2)3 OC6 H5-3-CO2 CH3, 3-(3-((2,3-dihydro-5-hydroxy-6-benzofuranyl)oxy)propoxy)benzoic acid methyl ester], with 56 nM; and `COC(=O)Cc1ccc(OCCCOc2cc3c(cc2O)CCO3)cc1` [H O(CH2)3 OC6 H5-4-CH2 CO2 CH3, 4-(3-((2,3-dihydro-5-hydroxy-6-benzofuranyl)oxy)propoxy)benzeneacetic acid methyl ester], with 72 nM.
In the case of `COC(=O)c1ccc(OCCCOc2cc3c(cc2O)CCO3)cc1` [H O(CH2)3 OC6 H5-4-CO2 CH3, 4-(3-((2,3-dihydro-5-hydroxy-6-benzofuranyl)oxy)propoxy)benzoic acid methyl ester], the concentration for half-maximal inhibition (IC50) stood at 71 nM.
The same measure, in the same setting: then `Oc1cc2c(cc1SCCc1ccccc1)OCC2` [H S(CH2)2 C6 H5, 2,3-dihydro 6 (2 phenylethyl)thio-5-benzofuranol], with 66 nM; and `Oc1cc2c(cc1SCCCc1ccccc1)OCC2` [H S(CH2)3 C6 H5, 2,3-dihydro-6-(3-phenylpropyl)thio-5-benzofuranol], with 28 nM.

Still in this assay, the particulars now being: Leucocyte, 5 min; standard compounds; human PMN, A23187 10 μM, 5 min at 37° C.; read-out: IC50 values for LTB4 inhibition.
As for `CC(Cc1ccc(O)c(O)c1)C(C)Cc1ccc(O)c(O)c1` (centres unmarked) [nordihydroguaiacetic acid, reference compound], the concentration for half-maximal inhibition (IC50) amounted to 86 nM.
In the case of `O=C1CCN(c2ccccc2)N1` [phenidone, reference compound], the IC50 is 9250 nM.

In the next assay the test system is leukotriene biosynthesis in human polymorphonuclear leukocytes.
Experiment: not given
The note with it: known inhibitors of leukotriene biosynthesis; cited from earlier work.
Turning to `CC(Cc1ccc(O)c(O)c1)C(C)Cc1ccc(O)c(O)c1` (centres unmarked) [nordihydroguaiacetic acid, reference compound], the “activity in the human polymorphonuclear leukocytes assay” value is recorded as “active”.
As to `O=C1CCN(c2ccccc2)N1` [phenidone, reference compound], the “activity in the human polymorphonuclear leukocytes assay” value is reported as “active”.
